Reference: PubChem BioAssay AID248 (DTP/NCI, 2004)
Toxic doses and inconclusive results are not listed. Rule as the data show it: active = T/C of 150% or more; inactive = T/C below 125%.

Tested on: L1210 leukemia ip in BDF1 mice, survival T/C
Experiment: NCI In Vivo Anticancer Drug Screen. Data for tumor model L1210 Leukemia (intraperitoneal) in B6D2F1 (BDF1) mice
Details: endpoint: mean survival time, higher = longer survival
Procedure, shortened: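 Each compound was tested against a transplantable tumor grown in mice. The endpoint was survival, with treated animals benchmarked against vehicle controls as a simple ratio.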

[1] = dose: 50.0 mg/kg/injection, schedule: Q01DX009 (ip), vehicle: Klucel (hydroxypropylcellulose) (HPC)
[2] = dose: 100.0 mg/kg/injection, schedule: Q01DX009 (ip), vehicle: Klucel (hydroxypropylcellulose) (HPC)
[3] = dose: 200.0 mg/kg/injection, schedule: Q01DX009 (ip), vehicle: Klucel (hydroxypropylcellulose) (HPC)
[4] = dose: 100.0 mg/kg/injection, schedule: Q04DX003 (ip), vehicle: Klucel (hydroxypropylcellulose) (HPC)
[5] = dose: 200.0 mg/kg/injection, schedule: Q04DX003 (ip), vehicle: Klucel (hydroxypropylcellulose) (HPC)

Measured: T/C

CCOC(=O)c1cnc(SC)nc1NCc1ccc(Cl)c(Cl)c1
inactive: dose: 100.0 mg/kg/injection, schedule: Q04DX003 (ip), vehicle: saline with Tween-80 94 % of control | dose: 200.0 mg/kg/injection, schedule: Q04DX003 (ip), vehicle: saline with Tween-80 102 % of control | dose: 400.0 mg/kg/injection, schedule: Q04DX003 (ip), vehicle: saline with Tween-80 96 % of control

O=C(O)c1c(-c2nccc3ccccc23)[nH]c(-c2ccccc2)c1S(=O)(=O)O
inactive: dose: 75.0 mg/kg/injection, schedule: Q01DX001 (ip), vehicle: saline 103 % of control | dose: 150.0 mg/kg/injection, schedule: Q01DX001 (ip), vehicle: saline 101 % of control

O=C1c2cscc2C(O)c2c(Cl)sc(Cl)c21 (stereo not given)
inactive: dose: 100.0 mg/kg/injection, schedule: Q04DX002 (ip), vehicle: saline with Tween-80 101 % of control | dose: 200.0 mg/kg/injection, schedule: Q04DX002 (ip), vehicle: saline with Tween-80 97 % of control | dose: 400.0 mg/kg/injection, schedule: Q04DX002 (ip), vehicle: saline with Tween-80 89 % of control

NC(=S)N/N=C1\C=CCCC1
inactive: dose: 50.0 mg/kg/injection, schedule: Q01DX001 (ip), vehicle: carboxymethylcellulose (CMC) 111 % of control

Nc1nc(Cl)nc(C(Cl)(Cl)Cl)c1Cl (tested in a mixture with another compound)
inactive: [1] 94 % of control | [2] 87 % of control | [3] 97 % of control

CC(=O)Nc1cccc2c1CCCC2
inactive: dose: 100.0 mg/kg/injection, schedule: Q01DX009 (ip), vehicle: gum acacia 98 % of control | dose: 100.0 mg/kg/injection, schedule: Q04DX003 (ip), vehicle: gum acacia 95 % of control | dose: 200.0 mg/kg/injection, schedule: Q01DX009 (ip), vehicle: gum acacia 97 % of control | dose: 200.0 mg/kg/injection, schedule: Q04DX003 (ip), vehicle: gum acacia 96 % of control | dose: 400.0 mg/kg/injection, schedule: Q01DX009 (ip), vehicle: gum acacia 103 % of control | dose: 400.0 mg/kg/injection, schedule: Q04DX003 (ip), vehicle: gum acacia 95 % of control

CCCOC1=C2CCCCC2CC1 (stereo not given)
inactive: dose: 100.0 mg/kg/injection, schedule: Q01DX001 (ip), vehicle: saline 113 % of control | dose: 200.0 mg/kg/injection, schedule: Q01DX001 (ip), vehicle: saline 113 % of control | dose: 400.0 mg/kg/injection, schedule: Q01DX001 (ip), vehicle: saline 102 % of control

CC1CCCN(C(=O)/C=C/c2ccccc2)C1 (stereo not given)
inactive: dose: 50.0 mg/kg/injection, schedule: Q04DX002 (ip), vehicle: saline 104 % of control | dose: 100.0 mg/kg/injection, schedule: Q04DX002 (ip), vehicle: Klucel (hydroxypropylcellulose) (HPC) 91 % of control | dose: 100.0 mg/kg/injection, schedule: Q04DX002 (ip), vehicle: saline 93 % of control | dose: 200.0 mg/kg/injection, schedule: Q04DX002 (ip), vehicle: Klucel (hydroxypropylcellulose) (HPC) 95 % of control | dose: 200.0 mg/kg/injection, schedule: Q04DX002 (ip), vehicle: saline 97 % of control | dose: 400.0 mg/kg/injection, schedule: Q04DX002 (ip), vehicle: Klucel (hydroxypropylcellulose) (HPC) 95 % of control

CNC(=O)c1ccccc1C(O)(c1ccccc1)c1ccccc1
inactive: [2] 95 % of control | [4] 94 % of control | [3] 98 % of control | [5] 97 % of control | dose: 400.0 mg/kg/injection, schedule: Q01DX009 (ip), vehicle: Klucel (hydroxypropylcellulose) (HPC) 101 % of control | dose: 400.0 mg/kg/injection, schedule: Q04DX003 (ip), vehicle: Klucel (hydroxypropylcellulose) (HPC) 90 % of control

O=C(N/N=C\c1ccccc1Cl)c1ccco1
inactive: dose: 100.0 mg/kg/injection, schedule: Q01DX001 (ip), vehicle: carboxymethylcellulose (CMC) 92 % of control | dose: 200.0 mg/kg/injection, schedule: Q01DX001 (ip), vehicle: carboxymethylcellulose (CMC) 86 % of control

O=C(O)c1ccccc1C(=O)Nc1cc(Cl)ccc1Cl
inactive: [1] 94 % of control | [2] 98 % of control | [4] 98 % of control | [3] 93 % of control | [5] 89 % of control
